Measurements from ChEMBL document CHEMBL4308841, “Synthesis, in vitro antiproliferative activity, and kinase inhibitory effects of pyrazole-containing diarylureas and diarylamides” (Eur J Med Chem, 2018).

Key:
[1] = test system: NCI/ADR-RES; assay: Growth inhibition of human NCI/ADR-RES cells assessed as cell growth at 0.01 uM incubated for 48 hrs by sulforhodamine B assay relative to control; format: functional; settings: read-out: Activity
[2] = test system: HT-29; assay: Growth inhibition of human HT-29 cells assessed as cell growth at 0.01 uM incubated for 48 hrs by sulforhodamine B assay relative to control; format: functional; settings: HT-29, 48 h, read-out: Activity
[3] = test system: NCI-H522; assay: Growth inhibition of human NCI-H522 cells assessed as cell growth at 10 uM incubated for 48 hrs by sulforhodamine B assay relative to control; format: functional; settings: NCI-H522, 48 h, read-out: Activity
[4] = test system: RXF 393; assay: Growth inhibition of human RXF393 cells assessed as cell growth at 1 uM incubated for 48 hrs by sulforhodamine B assay relative to control; format: functional; settings: RXF 393, 48 h, read-out: Activity
[5] = test system: Hs-578T; assay: Growth inhibition of human Hs578T cells assessed as cell growth at 1 uM incubated for 48 hrs by sulforhodamine B assay relative to control; format: functional; settings: read-out: Activity
[6] = test system: UACC-257; assay: Growth inhibition of human UACC257 cells incubated for 48 hrs by sulforhodamine B assay; format: functional, cell-based; settings: UACC-257, 48 h
[7] = test system: KM12; assay: Growth inhibition of human KM12 cells assessed as cell growth at 0.01 uM incubated for 48 hrs by sulforhodamine B assay relative to control; format: functional; settings: KM12, 48 h, read-out: Activity
[8] = test system: OVCAR-5; assay: Growth inhibition of human OVCAR5 cells assessed as cell growth at 0.01 uM incubated for 48 hrs by sulforhodamine B assay relative to control; format: functional; settings: OVCAR-5, 48 h, read-out: Activity
[9] = test system: RPMI-8226; assay: Growth inhibition of human RPMI8226 cells assessed as cell growth at 0.01 uM incubated for 48 hrs by sulforhodamine B assay relative to control; format: functional; settings: RPMI-8226, 48 h, read-out: Activity
[10] = test system: RPMI-8226; assay: Growth inhibition of human RPMI8226 cells assessed as cell growth at 0.1 uM incubated for 48 hrs by sulforhodamine B assay relative to control; format: functional; settings: RPMI-8226, 48 h, read-out: Activity
[11] = test system: UACC-62; assay: Growth inhibition of human UACC62 cells assessed as cell growth at 1 uM incubated for 48 hrs by sulforhodamine B assay relative to control; format: functional; settings: UACC-62, 48 h, read-out: Activity
[12] = test system: HT-29; assay: Growth inhibition of human HT-29 cells assessed as cell growth at 0.1 uM incubated for 48 hrs by sulforhodamine B assay relative to control; format: functional; settings: HT-29, 48 h, read-out: Activity
[13] = test system: U-251; assay: Growth inhibition of human U251 cells assessed as cell growth at 100 uM incubated for 48 hrs by sulforhodamine B assay relative to control; format: functional; settings: U-251, 48 h, read-out: Activity
[14] = test system: T47D; assay: Growth inhibition of human T47D cells incubated for 48 hrs by sulforhodamine B assay; format: functional, cell-based
[15] = test system: LOX IMVI; assay: Growth inhibition of human LOXIMVI cells assessed as cell growth at 1 uM incubated for 48 hrs by sulforhodamine B assay relative to control; format: functional; settings: read-out: Activity
[16] = test system: 786-0; assay: Growth inhibition of human 786-0 cells assessed as cell growth at 1 uM incubated for 48 hrs by sulforhodamine B assay relative to control; format: functional; settings: 786-0, 48 h, read-out: Activity
[17] = test system: OVCAR-3; assay: Growth inhibition of human OVCAR3 cells assessed as cell growth at 100 uM incubated for 48 hrs by sulforhodamine B assay relative to control; format: functional; settings: OVCAR-3, 48 h, read-out: Activity
[18] = test system: BT-549; assay: Growth inhibition of human BT549 cells assessed as cell growth at 100 uM incubated for 48 hrs by sulforhodamine B assay relative to control; format: functional; settings: BT-549, 48 h, read-out: Activity
[19] = test system: NCI-H226; assay: Growth inhibition of human NCI-H226 cells assessed as cell growth at 100 uM incubated for 48 hrs by sulforhodamine B assay relative to control; format: functional; settings: NCI-H226, 48 h, read-out: Activity
[20] = test system: K562; assay: Growth inhibition of human K562 cells assessed as cell growth at 0.01 uM incubated for 48 hrs by sulforhodamine B assay relative to control; format: functional; settings: K562, 48 h, read-out: Activity
[21] = test system: IGROV-1; assay: Growth inhibition of human IGROV1 cells assessed as cell growth at 100 uM incubated for 48 hrs by sulforhodamine B assay relative to control; format: functional; settings: IGROV-1, 48 h, read-out: Activity
[22] = test system: OVCAR-3; assay: Growth inhibition of human OVCAR3 cells assessed as cell growth at 0.1 uM incubated for 48 hrs by sulforhodamine B assay relative to control; format: functional; settings: OVCAR-3, 48 h, read-out: Activity
[23] = test system: MDA-MB-435; assay: Growth inhibition of human MDA-MB-435 cells incubated for 48 hrs by sulforhodamine B assay; format: functional, cell-based; settings: MDA-MB-435, 48 h
[24] = test system: COLO 205; assay: Growth inhibition of human COLO205 cells assessed as cell growth at 1 uM incubated for 48 hrs by sulforhodamine B assay relative to control; format: functional; settings: COLO 205, 48 h, read-out: Activity
[25] = test system: MDA-MB-468; assay: Growth inhibition of human MDA-MB-468 cells assessed as cell growth at 1 uM incubated for 48 hrs by sulforhodamine B assay relative to control; format: functional; settings: MDA-MB-468, 48 h, read-out: Activity
[26] = test system: HCT-116; assay: Growth inhibition of human HCT116 cells incubated for 48 hrs by sulforhodamine B assay; format: functional, cell-based; settings: HCT-116, 48 h
[27] = test system: U-251; assay: Growth inhibition of human U251 cells incubated for 48 hrs by sulforhodamine B assay; format: functional, cell-based; settings: U-251, 48 h
[28] = test system: HCC 2998; assay: Growth inhibition of human HCC2998 cells assessed as cell growth at 100 uM incubated for 48 hrs by sulforhodamine B assay relative to control; format: functional; settings: HCC 2998, 48 h, read-out: Activity
[29] = test system: CCRF-CEM; assay: Growth inhibition of human CCRF-CEM cells assessed as cell growth at 100 uM incubated for 48 hrs by sulforhodamine B assay relative to control; format: functional; settings: read-out: Activity
[30] = test system: SK-OV-3; assay: Growth inhibition of human SKOV3 cells assessed as cell growth at 1 uM incubated for 48 hrs by sulforhodamine B assay relative to control; format: functional; settings: SK-OV-3, 48 h, read-out: Activity
[31] = read-out: LC50 (the source's name)
[32] = read-out: pLC50 (the source's name) (converted)

SMILES: COc1cc(Cl)cc(-c2nn(-c3cccc(NC(=O)Nc4cccc(C(F)(F)F)c4)c3)cc2-c2ccncc2)c1
- growth at 0.01 µM [1]: 100%
- growth at 0.01 µM [2]: 102%
- growth at 10 µM [3]: -18.6%
- growth at 1 µM [4]: 68%
- growth at 1 µM [5]: 90%
- GI50 ([6]; read-out: GI50): 1.75 µM
- CC50 [6, 31]: 21.5 µM
- TGI ([6]; read-out: TGI): 45.5 µM
- GI50 ([6]; read-out: pGI50 (converted)): 1.74 µM
- CC50 [6, 32]: 21.4 µM
- TGI ([6]; read-out: pTGI (converted)): 4.68 µM
- growth at 0.01 µM [7]: 97%
- growth at 0.01 µM [8]: 94%
- growth at 0.01 µM [9]: 99%
- growth at 0.1 µM [10]: 98%
- growth at 1 µM [11]: 70%
- growth at 0.1 µM [12]: 95%
- growth at 100 µM [13]: -100%
- GI50 ([14]; read-out: GI50): 1.23 µM
- CC50 [14, 31]: > 100 µM
- TGI ([14]; read-out: TGI): 59.9 µM
- GI50 ([14]; read-out: pGI50 (converted)): 1.23 µM
- CC50 [14, 32]: > 100 µM
- TGI ([14]; read-out: pTGI (converted)): 6.92 µM
- growth at 1 µM [15]: 72%
- growth at 1 µM [16]: 77%
- growth at 100 µM [17]: -41%
- growth at 100 µM [18]: -48%
- growth at 100 µM [19]: -22%
- growth at 0.01 µM [20]: 104%
- growth at 100 µM [21]: -12%
- growth at 0.1 µM [22]: 98%
- GI50 ([23]; read-out: GI50): 1.74 µM
- LC50 ([23]; read-out: LC50): 83.7 µM
- TGI ([23]; read-out: TGI): 35.2 µM
- GI50 ([23]; read-out: pGI50 (converted)): 1.74 µM
- LC50 ([23]; read-out: pLC50 (converted)): 8.32 µM
- TGI ([23]; read-out: pTGI (converted)): 3.8 µM
- growth at 1 µM [24]: 79%
- growth at 1 µM [25]: 51%
- IC50 [26]: 0.75 µM
- GI50 ([26]; read-out: GI50): 0.754 µM
- CC50 [26, 31]: 35.7 µM
- TGI ([26]; read-out: TGI): 75.1 µM
- GI50 ([26]; read-out: pGI50 (converted)): 0.759 µM
- CC50 [26, 32]: 38.9 µM
- TGI ([26]; read-out: pTGI (converted)): 7.59 µM
- IC50 [27]: 0.88 µM
- GI50 ([27]; read-out: GI50): 0.679 µM
- CC50 [27, 31]: 89.4 µM
- TGI ([27]; read-out: TGI): 29.1 µM
- GI50 ([27]; read-out: pGI50 (converted)): 0.891 µM
- CC50 [27, 32]: 8.91 µM
- TGI ([27]; read-out: pTGI (converted)): 2.88 µM
- growth at 100 µM [28]: -83%
- growth at 100 µM [29]: -18%
- growth at 1 µM [30]: 103%
